Consider 23 compounds from PMC5428354, “Screening of a natural compound library identifies emodin, a natural compound from Rheum palmatum Linn that inhibits DPP4” (PeerJ, 2017).

Each structure is given as a SMILES string. Several values for one entry are separate records, joined by “and”; a condition that tells them apart may be missing. Equal entries are not always repeated. Structures can show the parent of a compound that is named as a salt. Where two headings read alike, the source gives them in different places. Bounds are passed on as bounds.

Common to all, as to format: biochemical
For assay [1], the target named is DPP8 (Homo sapiens, UniProt Q6V1X1). Kind of assay: DPP8 activity assay (BPS Bioscience kit).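 On DPP8 assay, Emission (450 nm): fluorescence read with excitation at 365 nm.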 To be noted: for DPP8 activity: DMSO = Ctrl. How it is done:
A DPP8 assay kit was purchased from BPS Bioscience (Cat# 800208), and the assay protocol was followed to test for inhibitory activity on DPP8. Briefly, DPP substrate 1 was diluted to make a 100 µM stock solution, and DPP8 protein was diluted in DPP assay buffer to 2 ng/µl (20 ng/reaction). For the tested compounds, 10 µl of diluted DPP8 protein, 5 µl of diluted DPP substrate 1, 84 µl of DPP assay buffer and 1 µl of inhibitor were addedinto the assay system for a total volume of 100 µl. The reaction mixtures were prepared in duplicate on a 96-well plate and incubated at room temperature for 10 min. […]

For assay [2], the target named is T1, DPP9 (Homo sapiens, UniProt Q86TI2).
T1 construct: purchased BPS Bioscience 800209
Put plainly: DPP9 activity assay (BPS Bioscience kit).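 On DPP9 assay, Emission (450 nm): 20 ng DPP9 per 100 µl reaction with DPP substrate 1.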 As to conditions: 100 µM, Well #1-#3; for DPP9 activity: DMSO = Ctrl.

For assay [3], the target named is DPP4 (Homo sapiens, UniProt P27487). Kind of assay: DPP4 activity assay (DPP4 inhibitor screening assay kit, Cayman).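 On all read-outs here: fluorescence read at excitation 360 nm and emission 460 nm after the enzyme reaction ran 30 min at 37 °C in a 96-well plate.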 More on the design: purchased Cayman Chemical, Ann Arbor, MI, USA. To be noted: for Ki: DPP4; for Ki / IC50: means ± SE; for IC50: in vitro, read-out: IC50 of DPP4 Inhibition; for remaining activity at 10 µM: 0.5 h; for remaining activity at 10 µM / DPP4 activity in library screen, Exp 1 / DPP4 activity in library screen, Exp 2 / DPP4 activity in library screen, Exp 3 / DPP4 activity in library screen, Mean: control mean 100.0.

Where [4] appears, read: 10 µM, Figure 1A raw data, read-out: DPP4 activity in library screen, Exp 1.
[5] abbreviates: 10 µM, Figure 1A raw data, read-out: DPP4 activity in library screen, Exp 2.
Where [6] appears, read: 10 µM, Figure 1A raw data, read-out: DPP4 activity in library screen, Exp 3.
[7] abbreviates: 10 µM, mean of Exp 1-3, read-out: DPP4 activity in library screen, Mean.

Chain of DPP4 (P27487 whole entry): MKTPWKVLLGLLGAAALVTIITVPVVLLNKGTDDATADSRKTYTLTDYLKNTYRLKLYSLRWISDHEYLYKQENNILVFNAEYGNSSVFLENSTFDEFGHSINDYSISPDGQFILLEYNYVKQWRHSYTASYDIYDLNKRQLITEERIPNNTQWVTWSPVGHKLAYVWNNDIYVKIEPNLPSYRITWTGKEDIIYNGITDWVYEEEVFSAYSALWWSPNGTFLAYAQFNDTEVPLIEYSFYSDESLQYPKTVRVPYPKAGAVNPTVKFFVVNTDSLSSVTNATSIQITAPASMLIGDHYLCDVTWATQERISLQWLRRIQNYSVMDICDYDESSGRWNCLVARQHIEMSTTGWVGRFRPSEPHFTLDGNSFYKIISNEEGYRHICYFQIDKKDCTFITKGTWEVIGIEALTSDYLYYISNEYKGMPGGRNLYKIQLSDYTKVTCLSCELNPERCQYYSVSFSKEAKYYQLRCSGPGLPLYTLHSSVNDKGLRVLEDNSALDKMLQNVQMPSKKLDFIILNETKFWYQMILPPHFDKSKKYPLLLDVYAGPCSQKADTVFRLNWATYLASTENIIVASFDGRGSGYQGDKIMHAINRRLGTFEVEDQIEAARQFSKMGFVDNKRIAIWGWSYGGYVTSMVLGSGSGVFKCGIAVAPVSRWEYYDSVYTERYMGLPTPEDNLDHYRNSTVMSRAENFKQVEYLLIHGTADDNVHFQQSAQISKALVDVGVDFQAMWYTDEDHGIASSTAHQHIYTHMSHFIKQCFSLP
T1 sequence (Q86TI2 whole entry): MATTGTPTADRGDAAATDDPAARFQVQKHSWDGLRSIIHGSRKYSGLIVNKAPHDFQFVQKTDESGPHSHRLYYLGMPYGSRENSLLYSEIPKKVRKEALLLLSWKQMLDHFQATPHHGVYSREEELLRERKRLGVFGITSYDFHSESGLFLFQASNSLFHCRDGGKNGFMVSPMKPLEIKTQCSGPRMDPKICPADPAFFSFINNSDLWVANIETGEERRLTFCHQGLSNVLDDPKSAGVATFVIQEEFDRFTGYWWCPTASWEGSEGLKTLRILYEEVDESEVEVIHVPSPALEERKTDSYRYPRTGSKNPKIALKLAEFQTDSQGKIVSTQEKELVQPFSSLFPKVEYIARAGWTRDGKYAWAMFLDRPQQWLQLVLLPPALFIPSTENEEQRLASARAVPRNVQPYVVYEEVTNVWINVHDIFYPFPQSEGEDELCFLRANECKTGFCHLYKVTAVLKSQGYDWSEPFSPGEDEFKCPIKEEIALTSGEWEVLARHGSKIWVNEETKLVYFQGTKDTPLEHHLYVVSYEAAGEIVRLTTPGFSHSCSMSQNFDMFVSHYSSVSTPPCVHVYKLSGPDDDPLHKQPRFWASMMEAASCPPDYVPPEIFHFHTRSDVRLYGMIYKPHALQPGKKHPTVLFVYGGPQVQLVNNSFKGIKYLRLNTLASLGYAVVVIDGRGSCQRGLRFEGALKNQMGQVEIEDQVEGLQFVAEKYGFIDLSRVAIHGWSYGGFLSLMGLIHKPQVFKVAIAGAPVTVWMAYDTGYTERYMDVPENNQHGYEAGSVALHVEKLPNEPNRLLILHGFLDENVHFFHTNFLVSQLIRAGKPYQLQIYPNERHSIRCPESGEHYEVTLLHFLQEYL
Chain of DPP8 (Q6V1X1 whole entry): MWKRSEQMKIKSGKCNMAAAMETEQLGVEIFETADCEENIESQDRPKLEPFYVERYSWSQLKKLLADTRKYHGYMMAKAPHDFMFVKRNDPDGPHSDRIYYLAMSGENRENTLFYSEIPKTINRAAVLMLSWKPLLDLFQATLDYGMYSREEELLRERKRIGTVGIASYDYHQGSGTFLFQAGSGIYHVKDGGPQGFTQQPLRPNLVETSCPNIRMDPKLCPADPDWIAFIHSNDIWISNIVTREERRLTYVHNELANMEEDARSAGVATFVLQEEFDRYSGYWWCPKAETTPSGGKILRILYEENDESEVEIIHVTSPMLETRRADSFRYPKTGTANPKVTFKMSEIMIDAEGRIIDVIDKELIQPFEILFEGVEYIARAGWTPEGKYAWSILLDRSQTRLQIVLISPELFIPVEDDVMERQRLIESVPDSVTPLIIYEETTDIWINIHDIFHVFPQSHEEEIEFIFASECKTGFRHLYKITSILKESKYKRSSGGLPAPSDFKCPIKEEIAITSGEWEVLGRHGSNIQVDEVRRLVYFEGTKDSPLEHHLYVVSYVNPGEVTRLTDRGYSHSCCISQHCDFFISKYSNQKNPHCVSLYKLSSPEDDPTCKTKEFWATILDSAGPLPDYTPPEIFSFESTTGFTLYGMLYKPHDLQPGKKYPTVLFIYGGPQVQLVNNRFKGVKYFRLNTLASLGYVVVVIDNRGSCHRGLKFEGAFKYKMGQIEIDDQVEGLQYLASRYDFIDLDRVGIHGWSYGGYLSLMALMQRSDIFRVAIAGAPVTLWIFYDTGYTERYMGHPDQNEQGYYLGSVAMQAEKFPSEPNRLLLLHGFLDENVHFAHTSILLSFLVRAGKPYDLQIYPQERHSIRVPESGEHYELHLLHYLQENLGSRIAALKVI

Regarding `O=C(O)c1cc(O)c2c(c1)C(=O)c1cccc(O)c1C2=O` [Rhein], the concentration for half-maximal inhibition (IC50) – broadly, the concentration that gives 50% inhibition – in assay [1] is above 100 µM. The DPP8 activity in assay [1] (100 µM, Exp #1-#5) is 54.9 % of Ctrl and 47.9 % of Ctrl and 41.4 % of Ctrl and 44.7 % of Ctrl and 72.6 % of Ctrl. Also, the “activity against DPP8” value in assay [1] (tested at 100 µM) was “very weak activity”. In assay [2], the “DPP9 assay, Emission (450 nm)” value was 41706 and 44766 and 43536; the DPP9 activity is 85.6 % of Ctrl and 91.9 % of Ctrl and 89.4 % of Ctrl. In addition, in assay [3], the Ki (as a rule, a dissociation constant, usually derived from enzyme kinetics or from competition with a known ligand) stood at 3.42 ± 0.53 µM and the half-inhibitory concentration (IC50) was 23.1 ± 3.57 µM.
Take `O=C1c2cccc(O)c2C(=O)c2c(O)cc(CO)cc21` [Aloe-emodin]: in assay [1] (100 µM, Exp #1-#5), the “DPP8 assay, Emission (450 nm)” value is 28333 and 31255 and 28705 and 40933 and 31387; the DPP8 activity was 59.6 % of Ctrl and 101.9 % of Ctrl and 112.4 % of Ctrl and 103.3 % of Ctrl and 77.7 % of Ctrl. In addition, in assay [2], the “DPP9 assay, Emission (450 nm)” value was 45255 and 48696 and 44751; the DPP9 activity is 92.9 % of Ctrl and 100.0 % of Ctrl and 91.9 % of Ctrl. In assay [3], affinity was put at a Ki of 2.37 ± 0.62 µM and the IC50 is 16 ± 4.24 µM.
For `COc1cc(O)c2c(c1)C(=O)c1cc(C)cc(O)c1C2=O` [Rheochrysidin], the DPP8 activity in assay [1] (100 µM, Exp #1-#5) was 78.2 % of Ctrl and 100.6 % of Ctrl and 89.5 % of Ctrl and 95.0 % of Ctrl and 106.4 % of Ctrl. The “DPP9 assay, Emission (450 nm)” value in assay [2] was 49845 and 45873 and 51642. Besides, the DPP9 activity in assay [2] was 102.3 % of Ctrl and 94.2 % of Ctrl and 106.0 % of Ctrl. Further, the remaining activity at 10 µM in assay [3] (setting [4]) came to 44.7%; in assay [3] (setting [5]) it was 52.2%; in assay [3] (setting [6]), 53.9%; in assay [3] (setting [7]), 50.3%.
Turning to `CCC1=C[C@@H]2CN3CCc4c([nH]c5ccccc45)[C@@](C(=O)OC)(C2)[C@@H]13` [Catharanthine], in assay [3] (10 µM, Figure 1A raw data), the “DPP4 activity in library screen, Exp 1” value was found to be 117.2; the “DPP4 activity in library screen, Exp 2” value was 93.7; the “DPP4 activity in library screen, Exp 3” value stood at 139.2. The “DPP4 activity in library screen, Mean” value in assay [3] (10 µM, mean of Exp 1-3) is reported as 116.7.
In the case of `CCCCCCCCCCCCCCCC(=O)OC[C@@]1(O)C[C@@]23CC[C@@H]4c5ccoc5CC[C@@]4(C)[C@@H]2CC[C@@H]1C3` [Cafestol palmitate], in assay [3] (10 µM, Figure 1A raw data), the “DPP4 activity in library screen, Exp 1” value was 96.3; the “DPP4 activity in library screen, Exp 2” value is 108.3; the “DPP4 activity in library screen, Exp 3” value came out at 144. Moreover, the “DPP4 activity in library screen, Mean” value in assay [3] (10 µM, mean of Exp 1-3) came to 116.2.
Consider `O=C1C[C@@H](c2ccc(O)cc2)Oc2cc(O)cc(O)c21` [Naringenin], for which the remaining activity at 10 µM was determined as 80.4% in assay [3] (setting [4]), 87.5% in assay [3] (setting [5]), 94.1% in assay [3] (setting [6]) and 87.3% in assay [3] (setting [7]).
For `COC(=O)[C@@H]1[C@H]2C[C@H]3c4[nH]c5ccccc5c4CCN3C[C@@H]2CC[C@@H]1O` [Yohimbine HCl], the remaining activity at 10 µM in assay [3] (read-out: DPP4 activity in library screen, Exp 1, 10 µM, Figure 1A raw data) is 92.1%; in assay [3] (read-out: DPP4 activity in library screen, Exp 2, 10 µM, Figure 1A raw data) it was 92.7%; in assay [3] (read-out: DPP4 activity in library screen, Exp 3, 10 µM, Figure 1A raw data) it was 90.1%; in assay [3] (read-out: DPP4 activity in library screen, Mean, 10 µM, mean of Exp 1-3), 91.6%.
Regarding `O=C([O-])C(O)Cc1ccc(O)c(O)c1.[Na+]` (stereo not shown) [Sodium Danshensu], in assay [3] (10 µM, Figure 1A raw data), the “DPP4 activity in library screen, Exp 1” value came out at 95.8; the “DPP4 activity in library screen, Exp 2” value turned out to be 90.3; the “DPP4 activity in library screen, Exp 3” value is 90.2. Besides, the “DPP4 activity in library screen, Mean” value in assay [3] (10 µM, mean of Exp 1-3) turned out to be 92.1.
For `O=C(O)c1cc(=O)[nH]c(=O)[nH]1` [Orotic acid (6-Carboxyuracil), Orotic acid], the remaining activity at 10 µM in assay [3] (setting [4]) stood at 83.5%; in assay [3] (setting [5]) it was 88%; in assay [3] (setting [6]), 95.5%; in assay [3] (setting [7]), 89%.
The matching figures for `CC(C)Oc1ccc2c(=O)c(-c3ccccc3)coc2c1` [Ipriflavone (Osteofix), Ipriflavone]: 85.8%, 99.7%, 98% and 94.5%.
The matching figures for `CCCC[N+]1(C)[C@@H]2C[C@@H](OC(=O)[C@H](CO)c3ccccc3)C[C@H]1[C@@H]1O[C@@H]12` (stereo partly shown) [Butylscopolamine bromide]: 97.5%, 98.7%, 78.2% and 91.5%.
`O=C1C=CC[C@@H]2[C@H]3CCCN4CCC[C@@H](CN12)[C@@H]34` [Sophocarpine]: the remaining activity at 10 µM in assay [3] (setting [4]) was 96.7%; in assay [3] (setting [5]) it was 109%; in assay [3] (setting [6]) it was 111%; in assay [3] (setting [7]), 105%.
The matching figures for `O=C1c2c(O)cc(O)cc2OC(c2ccc(O)c(O)c2)C1O` (stereo not shown) [Taxifolin (Dihydroquercetin), Taxifolin]: 93.8%, 83.2%, 67.9% and 81.6%.
As for `COc1ccc(-c2oc3c(CC=C(C)C)c(O[C@@H]4O[C@H](CO)[C@@H](O)[C@H](O)[C@H]4O)cc(O)c3c(=O)c2O[C@@H]2O[C@@H](C)[C@H](O)[C@@H](O)[C@H]2O)cc1` [Icariin], the remaining activity at 10 µM in assay [3] (setting [4]) worked out at 76%; in assay [3] (setting [5]), 74.5%; in assay [3] (setting [6]), 78.7%; in assay [3] (setting [7]), 76.4%.
Consider `C=CCc1ccc(O)c(-c2cc(CC=C)ccc2O)c1` [Magnolol], for which the remaining activity at 10 µM in assay [3] (setting [4]) was found to be 97.6%; in assay [3] (setting [5]) it was 108%; in assay [3] (setting [6]), 83.9%; in assay [3] (setting [7]), 96.4%.
With `O=C(O)CCCc1c[nH]c2ccccc12` [3-Indolebutyric acid (IBA), 3-Indolebutyric acid], the remaining activity at 10 µM in assay [3] (setting [4]) was 92%; in assay [3] (setting [5]) it was 93.9%; in assay [3] (setting [6]), 107%; in assay [3] (setting [7]), 97.5%.
Consider `CC(C)(O)[C@H]1CC[C@@](C)([C@H]2[C@@H](O)C[C@@]3(C)[C@@H]4C[C@H](O[C@@H]5O[C@H](CO)[C@@H](O)[C@H](O)[C@H]5O)[C@H]5C(C)(C)[C@@H](O[C@@H]6OC[C@@H](O)[C@H](O)[C@H]6O)CC[C@@]56C[C@@]46CC[C@]23C)O1` [Astragaloside A], for which, in assay [3] (10 µM, Figure 1A raw data), the “DPP4 activity in library screen, Exp 1” value was determined as 103.8; the “DPP4 activity in library screen, Exp 2” value is given as 108.8; the “DPP4 activity in library screen, Exp 3” value was found to be 101.9. Besides, the “DPP4 activity in library screen, Mean” value in assay [3] (10 µM, mean of Exp 1-3) is recorded as 104.8.
Turning to `O=C(/C=C/c1ccc(O)c(O)c1)O[C@@H]1C[C@](O)(C(=O)O)C[C@@H](O)[C@H]1O` [Chlorogenic Acid], the remaining activity at 10 µM in assay [3] (setting [4]) is 71.3%; in assay [3] (setting [5]) it was 81.8%; in assay [3] (setting [6]), 102%; in assay [3] (setting [7]) it was 84.9%.
The matching figures for `CC1(C)[C@@H](O)CC[C@]2(C)[C@H]3C(=O)C=C4[C@@H]5C[C@@](C)(C(=O)O)CC[C@]5(C)CC[C@@]4(C)[C@]3(C)CC[C@@H]12` [Enoxolone]: 84.3%, 87%, 95.5% and 88.9%.
For `OCc1ccc(O[C@@H]2O[C@H](CO)[C@@H](O)[C@H](O)[C@H]2O)cc1` [Gastrodin] the same measures were 91%, 91.5%, 98.6% and 93.7%.
Consider `C=C1C[C@@]2(O)O[C@@]3(C[C@H]2C(C)C)[C@@H](C)CC[C@@H]13` [Curcumol], for which, in assay [3] (10 µM, Figure 1A raw data), the “DPP4 activity in library screen, Exp 1” value was 100.6; the “DPP4 activity in library screen, Exp 2” value is on record as 99.6; the “DPP4 activity in library screen, Exp 3” value is given as 110.6. Further, the “DPP4 activity in library screen, Mean” value in assay [3] (10 µM, mean of Exp 1-3) turned out to be 103.6.
As for `N[C@@H](Cc1c[nH]c2ccc(O)cc12)C(=O)O` [5-hydroxytryptophan (5-HTP), 5-hydroxytryptophan], the remaining activity at 10 µM was found to be 93.3% in assay [3] (setting [4]), 82.6% in assay [3] (setting [5]), 90.6% in assay [3] (setting [6]) and 88.8% in assay [3] (setting [7]).
The matching figures for `C[C@@H]1O[C@@H](OC[C@H]2O[C@@H](Oc3c(-c4ccc(O)c(O)c4)oc4cc(O)cc(O)c4c3=O)[C@H](O)[C@@H](O)[C@@H]2O)[C@H](O)[C@H](O)[C@H]1O` [Rutin]: 78.7%, 73.8%, 50.1% and 67.5%.
